What all share (type): in vivo
Experiment [1] concerns Phytophthora infestans (PHYTIN). The settings on record: for % efficacy (% fungal attack) PHYTIN: 360 ppm, in planta.
Experiment [2] has as its system Fusarium graminearum (GIBBZE). The settings on record: 360 ppm.
Experiment [3] concerns Septoria tritici (SEPTTR). The settings on record: 360 ppm, protective application.

Where a SMILES comes first, the peptide text is derived from it. Bridges are numbered along the chain shown (N, C = ends). The star is where a group is joined. ξ: configuration not given here. Pentadecanoyl(3ξ-OH,15-Gua) = N=C(N)NCCCCCCCCCCCCC(O)CC(=O)*

Regarding `CCC(C)C1NC(=O)C(NC(=O)CC(O)CCCCCCCCCCCCNC(=N)N)C(C)OC(=O)C(C)NC(=O)C(CC(N)=O)NC(=O)C(C(C)O)NC(=O)C(Cc2ccc(O)cc2)NC1=O` (stereo not drawn) [Compound 1A, fusaricidin 1A] ({Pentadecanoyl(3ξ-OH,15-Gua)}-TIYTNA; ester 1-C; configuration not given here), the “% efficacy (% fungal attack) PHYTIN” value in experiment [1] turned out to be 100%. The “% efficacy (% fungal attack) GIBBZE” value in experiment [2] (in planta) was 49%. Besides, in experiment [2] (protective application), the “% efficacy (% fungal attack), head blight on wheat caused by Fusarium graminearum” value was 49%.
Turning to `CCC(C)C1NC(=O)C(NC(=O)CC(O)CCCCCCCCCCCCNC(=N)N)C(C)OC(=O)C(C)NC(=O)C(CCC(N)=O)NC(=O)C(C(C)O)NC(=O)C(Cc2ccc(O)cc2)NC1=O` (stereo not drawn) [Compound 1B, fusaricidin 1B] ({Pentadecanoyl(3ξ-OH,15-Gua)}-TIYTQA; ester 1-C; configuration not given here), the “% efficacy (% fungal attack), late blight on tomato caused by Phytophthora infestans” value in experiment [1] (7.2 ppm, protective application) turned out to be 44%. For the same compound, the “% efficacy (% fungal attack) PHYTIN” value in experiment [1] was determined as 100%. Also, in experiment [3], the “% efficacy (% fungal attack), head blight on wheat caused by Septoria tritici” value is 80%.

These data come from patent US11185078B2 (priority 2016, dated 2021).
